According to PMC12478189, “Structurally diverse viral inhibitors converge on a shared mechanism to stall the antigen transporter TAP” (Proceedings of the National Academy of Sciences of the …, 2025):

Molecular target: T1, TAP/hUS6 complex (Homo sapiens, UniProt Q03518+Q03519)
T1 construct: gene TAP1; TAP1 C-terminal SpyCatcher, TAP2, hUS6 with SpyTag at its cytoplasmic terminus (covalent tether), GFP tag cleaved; HEK293S GnTI-; in GDN; hUS6 residues 102-136 resolved; with Unique short US6 glycoprotein
T1 sequence (P14334 20-183): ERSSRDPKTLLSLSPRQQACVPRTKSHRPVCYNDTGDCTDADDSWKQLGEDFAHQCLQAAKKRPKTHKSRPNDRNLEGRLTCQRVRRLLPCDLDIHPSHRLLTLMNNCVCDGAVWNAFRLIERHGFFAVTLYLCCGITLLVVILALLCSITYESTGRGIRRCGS
T1 sequence (Q03518 whole entry, the tested form may be a part): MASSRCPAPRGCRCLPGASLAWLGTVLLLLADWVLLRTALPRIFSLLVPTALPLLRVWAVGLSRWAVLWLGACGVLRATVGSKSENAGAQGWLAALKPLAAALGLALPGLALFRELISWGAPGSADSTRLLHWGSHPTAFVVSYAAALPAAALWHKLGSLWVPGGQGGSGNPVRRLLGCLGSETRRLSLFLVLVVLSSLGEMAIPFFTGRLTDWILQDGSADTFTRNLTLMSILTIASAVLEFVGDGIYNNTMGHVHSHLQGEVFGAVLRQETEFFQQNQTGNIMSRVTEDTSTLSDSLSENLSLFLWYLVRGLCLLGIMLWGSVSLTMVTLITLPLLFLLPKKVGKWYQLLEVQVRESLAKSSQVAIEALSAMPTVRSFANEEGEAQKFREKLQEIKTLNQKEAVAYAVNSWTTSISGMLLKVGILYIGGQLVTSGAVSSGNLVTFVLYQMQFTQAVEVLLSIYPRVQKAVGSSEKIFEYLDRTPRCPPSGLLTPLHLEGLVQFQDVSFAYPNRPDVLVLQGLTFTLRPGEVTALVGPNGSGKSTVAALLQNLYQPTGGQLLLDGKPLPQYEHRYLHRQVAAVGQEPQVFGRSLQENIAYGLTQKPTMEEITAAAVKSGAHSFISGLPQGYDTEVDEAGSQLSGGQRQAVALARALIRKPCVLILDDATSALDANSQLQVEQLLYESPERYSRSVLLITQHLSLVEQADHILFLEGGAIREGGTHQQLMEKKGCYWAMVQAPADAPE
T1 sequence (Q03519 whole entry, the tested form may be a part): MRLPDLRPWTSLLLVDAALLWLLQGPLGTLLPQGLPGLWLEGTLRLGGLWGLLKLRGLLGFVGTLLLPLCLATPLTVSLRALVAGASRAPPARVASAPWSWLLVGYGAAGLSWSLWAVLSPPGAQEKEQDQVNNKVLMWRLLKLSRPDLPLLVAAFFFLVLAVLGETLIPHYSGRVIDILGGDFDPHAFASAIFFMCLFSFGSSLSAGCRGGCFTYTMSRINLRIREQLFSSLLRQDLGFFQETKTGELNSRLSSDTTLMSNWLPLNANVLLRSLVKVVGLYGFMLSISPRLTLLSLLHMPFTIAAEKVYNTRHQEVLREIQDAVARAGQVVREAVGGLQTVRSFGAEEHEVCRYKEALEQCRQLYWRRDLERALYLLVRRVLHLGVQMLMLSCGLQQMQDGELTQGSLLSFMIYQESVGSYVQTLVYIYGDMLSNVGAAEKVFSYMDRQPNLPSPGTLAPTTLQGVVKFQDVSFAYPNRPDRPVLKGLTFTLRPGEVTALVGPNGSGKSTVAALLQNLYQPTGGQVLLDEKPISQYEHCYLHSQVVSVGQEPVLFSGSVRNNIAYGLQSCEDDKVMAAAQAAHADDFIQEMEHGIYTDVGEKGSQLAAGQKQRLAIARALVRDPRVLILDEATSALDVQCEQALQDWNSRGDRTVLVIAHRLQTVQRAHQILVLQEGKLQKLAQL
Assay: cryo-EM structure of the complex
Type: binding
Conditions: pH 6.5

Row | Compound | cryo-EM structure of the complex (10 mM ATP, ATP at the degenerate NBD site, outward-facing, NBD-dimerized) | cryo-EM structure of the complex (10 mM ATP added, ADP at the consensus NBD site, posthydrolytic state)
1 | Nc1ncnc2c1ncn2[C@@H]1O[C@H](COP(=O)(O)OP(=O)(O)OP(=O)(O)O)[C@@H](O)[C@H]1O [ATP] | densities corresponding to ATP bound at the degenerate site and ADP at the consensus site | 
2 | Nc1ncnc2c1ncn2[C@@H]1O[C@H](COP(=O)(O)OP(=O)(O)O)[C@@H](O)[C@H]1O [ADP] |  | densities corresponding to ATP bound at the degenerate site and ADP at the consensus site
